System: RSV A2 strain
Test: In vitro CPE (CytoPathic Effect) inhibition effect evaluation test, RSV type A
Type: cell-based
Settings: human respiratory syncytial virus, HEp-2
Procedure: The test sample is diluted in advance to an appropriate concentration with DMSO, and 3-fold series of serial dilutions were prepared on a 384-well plate (0.32 μL/well). HEp-2 cells (CCL-23; ATCC) adjusted at appropriate number (2.4×10^5 cells/mL) in 2% FBS E-MEM (prepared by adding kanamycin and FBS to Eagle's Minimum Essential Medium; Invitrogen) were added at 12.5 μL/well to the 384-well plate previously aliquoted with the test samples. The RSV A2 strain was diluted to an appropriate concentration in a culture medium and added to the 384-well plate containing the test sample at 12.5 μL/well. The culture medium was added additionally to the 384-well plate, and the test was started with 50 μL/well. Control wells were prepared with only virus-free culture medium. The plate was incubated in a 5% CO2 incubator at 37° C. for 4 days, and the plate was then placed at room temperature for 30 minutes. CellTiter-Glo (registered trademark) 2.0 assay (Promega) was added at 15 μL/well, mixed for 30 seconds, and the plate was placed for approximately 1 hour. The luminescent signal was then measured by EnVision (PerkinElmer). The inhibitory effect of the test agents on RSV-induced CPE was calculated as 0% and 100% inhibition rate for each sample concentration based on the level of remaining viable cells by CellTiter-Glo (registered trademark) 2.0, with the EC50 value for each compound calculated by nonlinear regression as the concentration that inhibits RSV-induced CPE by 50%. In the case of evaluation against RSV type B, RSV B (Wash/18537 strain) was infected in the same manner as the type A, cultured for 5 days, and quantitated in the same manner as for the A2 strain.

Row | Compound | EC50
1 | O=C(NC1(C(=O)O)C2CC3CC(C2)CC1C3)c1cnc(N2CC3(CCOCC3)c3cc(O[C@@H]4C[C@H]5CC[C@@H](C4)N5)ccc32)nc1C(F)(F)F (stereo partly shown) [Compound I-212] | 100 to 5000 nM
2 | O=C(NC1(C(=O)O)CCCCC1)c1cnc(N2CC3(CCN(C4CCC4)CC3)c3cc(OCCC4CCOCC4)ccc32)nc1C(F)(F)F [Compound I-63] | < 10 nM

Same assay, conditions: human respiratory syncytial virus; inhibitory effect against RSV type A (RSV A2 strain), HEp-2 cells, CPE inhibition; read-out: EC50

Row | EC50 | Compound
3 | < 10 nM | N#C[C@]12C[C@@H]3C[C@H](C1)[C@@](NC(=O)c1cnc(N4CC5(CCOCC5)c5cc(OC6CCN(c7ncccn7)CC6)ccc54)nc1C(F)(F)F)(C(=O)O)[C@@H](C3)C2 [Compound I-219]
4 | < 10 nM | O=C(NC1(C(=O)O)C2CC3CC(C2)CC1C3)c1cnc(-c2cn(C3CCC(F)(F)CC3)c3cc(C(=O)N4CCC(N5CC(F)(F)C5)CC4)ccc23)nc1C(F)(F)F (stereo not shown) [Compound I-416]
5 | < 10 nM | O=C(NC1(C(=O)O)C2CC3CC(C2)CC1C3)c1cnc(-c2cn(C3CCC(F)(F)CC3)c3cc(OC4CCN(CC5(F)CC5)CC4)ccc23)nc1C(F)(F)F (stereo not shown) [Compound I-425]
6 | < 10 nM | O=C(NC1(C(=O)O)C2CC3CC(C2)CC1C3)c1ccc(-c2cn(CC3CC3)c3cc(OC4CCN(c5ncccn5)CC4)ccc23)nc1C(F)(F)F (stereo not shown) [Compound I-153]
7 | < 10 nM | O=C(NC1(C(=O)O)C2CC3CC(C2)CC1C3)c1ccc(-c2cn([C@H]3CC[C@@H](O)CC3)c3cc(OC4CCN(c5ncccn5)CC4)ccc23)nc1C(F)(F)F (stereo partly shown) [Compound I-194]
8 | < 10 nM | COC1CC(n2cc(-c3ncc(C(=O)NC4(C(=O)O)C5CC6CC(C5)CC4C6)c(C(F)(F)F)n3)c3ccc(OC4CCN(c5ncc(F)cn5)CC4)cc32)C1 (stereo not shown) [Compound I-378]
9 | < 10 nM | O=C(NC1(C(=O)O)C2CC3CC(C2)CC1C3)c1cnc(N2CC3(CCOCC3)c3cc(Nc4ncccn4)ccc32)nc1C(F)(F)F (stereo not shown) [Compound I-435]
10 | < 10 nM | O=C(NC1(C(=O)O)C2CC3CC(C2)CC1C3)c1cnc(-c2cn(C3CCC(F)(F)CC3)c3cc(OC4CCC(F)(F)CC4)ccc23)nc1C(F)(F)F (stereo not shown) [Compound I-419]
11 | < 10 nM | COCCCCOc1ccc2c(c1)CCN2c1ncc(C(=O)NC2(C(=O)O)CC3CCC2C3)c(C(F)(F)F)n1 (stereo not shown) [Compound I-11]
12 | < 10 nM | CN(CC(F)(F)F)[C@H]1CC[C@H](Oc2ccc3c(-c4ncc(C(=O)NC5(C(=O)O)C6CC7CC(C6)CC5C7)c(C(F)(F)F)n4)cn(C4CCC(F)(F)CC4)c3c2)CC1 (stereo partly shown) [Compound I-450]

Continued, molecule first:

Row | Compound | EC50
13 | Cc1c(OC2CCN(c3ncccn3)CC2)ccc2c(-c3ncc(C(=O)NC4(C(=O)O)C5CC6CC(C5)CC4C6)c(C(F)(F)F)n3)cn(C3CCC(F)(F)CC3)c12 (stereo not shown) [Compound I-282] | < 10 nM
14 | CCc1ccc2c(c1)C1(CCOCC1)CN2c1ncc(C(=O)NC2(C(=O)O)C3CC4CC(C3)CC2C4)c(C(F)(F)F)n1 (stereo not shown) [Compound I-133] | < 10 nM
15 | COc1ccc2c(n1)C1(CCOCC1)CN2c1ccc(C(=O)NC2(C(=O)O)C3CC4CC(C3)CC2C4)c(C(F)(F)F)n1 (stereo not shown) [Compound I-120] | < 10 nM
16 | CC1CN(c2ncccn2)CCC1Oc1ccc2c(-c3ncc(C(=O)NC4(C(=O)O)C5CC6CC(C5)CC4C6)c(C(F)(F)F)n3)cn(C3CCC(F)(F)CC3)c2c1 (stereo not shown) [Compound I-273] | < 10 nM
17 | O=C(NC1(C(=O)O)C2CC3CC(C2)CC1C3)c1cnc(N2CC3(CCCC3)c3cc(OC4CCN(c5ncccn5)CC4)ccc32)nc1C(F)(F)F (stereo not shown) [Compound I-244] | < 10 nM
18 | O=C(NC1(C(=O)O)C2CC3CC(C2)CC1C3)c1cnc(N2CCc3cc(OCCC4CCOCC4)cnc32)cc1C(F)(F)F (stereo not shown) [Compound I-126] | < 10 nM
19 | O=C(NC1(C(=O)O)CCCCC1)c1cnc(N2CCc3cc(OC4CCN(c5nccc(=O)[nH]5)CC4)ccc32)nc1C(F)(F)F [Compound I-69] | 100 to 5000 nM
20 | O=C(NC1(C(=O)O)C2CC3CC(C2)CC1C3)c1cnc(N2CC3(CCCCC3)c3cc(O[C@H]4CC[C@@H](ON=C5CC(F)(F)C5)CC4)ccc32)nc1C(F)(F)F (stereo partly shown) [Compound I-461] | 10 to 100 nM
21 | COc1cccc(COc2ccc3c(n2)C2(CCOCC2)CN3c2ncc(C(=O)NC3(C(=O)O)CCCCC3)c(C(F)(F)F)n2)c1 [Compound I-103] | < 10 nM
22 | O=C(NC1(C(=O)O)C2CC3CC(C2)CC1C3)c1ccc(-c2cn(CC(=O)N3CCOCC3)c3cc(OC4CCN(c5ncccn5)CC4)ccc23)nc1C(F)(F)F (stereo not shown) [Compound I-149] | < 10 nM
23 | O=C(NC1(C(=O)O)C2CC3CC(C2)CC1C3)c1ccc(-c2cn([C@H]3CC[C@H](O)CC3)c3cc(OC4CCN(c5ncccn5)CC4)ccc23)nc1C(F)(F)F (stereo partly shown) [Compound I-195] | < 10 nM
24 | COc1cccc(C(=O)Nc2ccc3c(c2)CCN3c2ncc(C(=O)NC3(C(=O)O)CCCCC3)c(C(F)(F)F)n2)c1 [Compound I-39] | 10 to 100 nM
25 | O=C(NC1(C(=O)O)C2CC3CC(C2)CC1C3)c1cnc(-c2cn(C3CCC(F)(F)CC3)c3cc(CN4CCC(N5CC(F)(F)C5)CC4)ccc23)nc1C(F)(F)F (stereo not shown) [Compound I-417] | < 10 nM
26 | O=C(NC1(C(=O)O)C2CC3CC(C2)CC1C3)c1cnc(-c2cn(C3CCC(F)(F)CC3)c3cc(OC4CCN(CC(F)(F)C(F)(F)F)CC4)ccc23)nc1C(F)(F)F (stereo not shown) [Compound I-408] | < 10 nM
27 | O=C(NC1(C(=O)O)C2CC3CC(C2)CC1C3)c1cnc(-c2cn(C3CCC(F)(F)CC3)c3ccc(OC4CCCN(C5COC5)C4)cc23)nc1C(F)(F)F (racemic) [Compound I-233] | 10 to 100 nM
28 | COC12CC3CC(C1)C(NC(=O)c1cnc(N4CC5(CCOCC5)c5cc(OC6CCN(c7ncccn7)CC6)ccc54)nc1C(F)(F)F)(C(=O)O)C(C3)C2 (single isomer, unassigned) [Compound I-210] | < 10 nM

Same assay, conditions: inhibitory effect against RSV type A (RSV A2 strain), HEp-2 cells, CPE inhibition; read-out: EC50

Row | EC50 | Compound
29 | < 10 nM | CC1CC(Oc2ccc3c(-c4ncc(C(=O)NC5(C(=O)O)C6CC7CC(C6)CC5C7)c(C(F)(F)F)n4)cn(C4CCC(F)(F)CC4)c3c2)CCN1c1ncc(F)cn1 (single isomer, unassigned) [Compound I-386]
30 | < 10 nM | N#Cc1cccnc1-n1cc(-c2ccc(C(=O)NC3(C(=O)O)C4CC5CC(C4)CC3C5)c(C(F)(F)F)n2)c2ccc(OC3CCN(c4ncccn4)CC3)cc21 (stereo not shown) [Compound I-338]
31 | 10 to 100 nM | O=C(NC1(C(=O)O)C2CC3CC(C2)CC1C3)c1cnc(N2CC3(CCOCC3)c3cc(CN4CCC5(CC4)COC5)ccc32)nc1C(F)(F)F (stereo not shown) [Compound I-352]
32 | < 10 nM | Cn1ccc(-n2cc(-c3ccc(C(=O)NC4(C(=O)O)C5CC6CC(C5)CC4C6)c(C(F)(F)F)n3)c3ccc(OC4CCN(c5ncccn5)CC4)cc32)c1 (stereo not shown) [Compound I-334]
33 | < 10 nM | CC1CN(c2ncccn2)CCC1Oc1ccc2c(-c3ncc(C(=O)NC4(C(=O)O)C5CC6CC(C5)CC4C6)c(C(F)(F)F)n3)cn(C3CCC(F)(F)CC3)c2c1 (single isomer, unassigned) [Compound I-404]
34 | < 10 nM | O=C(NC1(C(=O)O)C2CC3CC(C2)CC1C3)c1cnc(N2CC3(CCOCC3)c3cc(C(F)(F)F)ccc32)nc1C(F)(F)F (stereo not shown) [Compound I-307]
35 | < 10 nM | CNc1nc(N2CCc3cc(OCCC4CCOCC4)ccc32)nc(C(F)(F)F)c1C(=O)NC1(C(=O)O)C2CC3CC(C2)CC1C3 (stereo not shown) [Compound I-95]
36 | < 10 nM | O=C(NC1(C(=O)O)C2CC3CC(C2)CC1C3)c1cnc(N2CC3(CCOCC3)c3cc(Br)ccc32)nc1C(F)(F)F (stereo not shown) [Compound I-347]

Row | Compound | EC50
37 | O=C(NC1(C(=O)O)C2CC3CC(C2)CC1C3)c1ccc(-c2cn(C3CCC(F)CC3)c3cc(O[C@H]4CC[C@H](N5CC(F)(F)C5)CC4)ccc23)nc1C(F)(F)F (single isomer, unassigned) [Compound I-584] | < 10 nM

From patent publication US12528790B2, “Amide derivative having antiviral activity” (Shionogi & Co., Ltd., priority 2020, dated 2026)
